Columns and labels:
HDAC3 = target: T1, HDAC3 (Homo sapiens, UniProt O15379); experiment: HDAC3 enzyme inhibition assay (single point and 10-dose IC50, Reaction Biology); type: biochemical
T1 construct: purchased Reaction Biology corporation (contract assay)
Method: (§1) All IC50 measurements we performed by Reaction Biology corporation. Compounds were tested in
(§2) dilution starting at 1 uM. […]
(§3) (RHK(Ac)K(Ac)AMC). IC50 values were calculated using the GraphPad Prism 4 program based on a
(§4) sigmoidal dose-response equation. […]

[1] = tested on: acetylated tubulin in A549 cells; experiment: Tubulin acetylation in A549 cells, immunostaining with high content imaging; type: cell-based, human; conditions: 24 h
Method: (§5) To confirm the observed activities of the selected test compounds against HDAC6, the acetylation status of tubulin in the human lung cancer cell line A549 was investigated by immunostaining combined with automated high content image analysis (see supplementary material for full details). […] The apparent drop in histone acetylation by both compounds above 10 μM is indicative of a potential cytotoxicity at higher concentrations (data not shown).
(§6) Figure 5 Cell-based assessment of HDAC activity and selectivity. Dose and time-dependency of tubulin and histone acetylation by test compounds. A549 cells were treated with (A,B) different concentrations (0–50 µM) of CF011, KNH019 and tubastatin for 24 h or with (C,D) 1 µM over different time intervals before (A,C) tubulin acetylation or (B,D) histone acetylation were automatically quantified using high content imaging. Data represent the average of four independent experiments with four replicate wells/experiments. The statistical significances of effects compared to the untreated control were analysed using Brown–Forsythe and Welch one-way ANOVA analyses using Graph Pad Prism. The significance was set as * 0.05 > p ≥ 0.01, ** 0.01 > p ≥ 0.002. Error bars represent the Standard Error of Mean (SEM). (E) Representative fluorescence images show tubulin acetylation (yellow), histone acetylation (red) and nuclear counterstain (DAPI, blue) after 24 h of exposure to test compounds. Secondary antibodies were detected using excitation/emission filters for CY3 (excitation: 542/27 nm, emission: 597/45 nm), CY5 (excitation: 632/22 nm, emission: 684/25 nm) and DAPI (excitation: 390/18 nm, emission: 435/48 nm), respectively. […]
(§7) S2.2 Cell Culture, Treatment and Immunostaining:
(§8) A549 cells (ATCC® CCL-185™, In Vitro Technologies Pty. Ltd., Victoria, Australia) were cultured in low glucose Dulbecco’s Modified Eagle Media (DMEM, 1 g/L glucose, 0.584 g/L L-glutamine, 3.7 g/L sodium bicarbonate, 10 % fetal bovine serum) under standard conditions (> 90 % humidity, 37 °C temperature, 5 % CO 2). For experiments, 5,000 cells/ well were seeded in 100 µl serum free DMEM in 384 well plates (µCLEAR®, Greiner) and left to adhere for 24 hours before the treatment. Cells were treated with 100 µl of test compound -containing media for up to 24 hours before cells were fixed with 4 % paraformaldehyde (PFA) solution in PBS (10 minutes at room temperature (RT)) and permeabi lized with 50 µl of 0.5 % Triton X -100 in PBS. Subsequently, cells were blocked in PBST (5% fetal bovine serum, 5% bovine serum albumin, 5% goat serum, 0.1% Tween 20 in PBS) before stained with anti - acetylated tubulin (T7451, Sigma Aldrich; 1:1,000) and an ti-acetylated histone antibody (ab47915, Abcam; 1:1,000) overnight at 4 °C. Subsequently, cells were exposed to secondary antibodies (goat anti-mouse Alexa fluor 594 (Invitrogen; 1:10,000) and goat anti -rabbit Alexa fluor 647 (Invitrogen; 1:10,000) in PBST ) and DAPI solution (Invitrogen; 1:10,000 in PBST) before images were acquired.
(§9) Fluorescence images were acquired (10x magnification, 2 -D format) using the InCell 2200 high content imaging system (V7.3, GE Healthcare life sciences) wi th CY3 (excitation: 542/27 nm, emission: 597/45 nm), CY5 (excitation: 632/22 nm, emission: 684/25 nm) and DAPI (excitation: 390/18 nm, emission:
435/48 nm) filters. Two images/well at predefined positions were automatically acquired with 4 replicate wells for each treatment condition/ experiment. At least 3 independent experiments were conducted for each condition. Acquired images were automatically processed using InCarta software (v1.6, GE Healthcare life sciences). All images were manually checked for ar tefacts. Images with less than 30 cells were excluded from the analysis. Excel and GraphPad Prism was used for statistical analysis and graphical representation. Data was expressed as % Relative Fluorescence Units (RFU) […]

HDAC8 = target: T2, HDAC8 (Homo sapiens, UniProt Q9BY41); experiment: HDAC8 enzyme inhibition assay (single point and 10-dose IC50, Reaction Biology); type: biochemical
T2 construct: purchased Reaction Biology corporation (contract assay)
T2 sequence (Q9BY41 1-377): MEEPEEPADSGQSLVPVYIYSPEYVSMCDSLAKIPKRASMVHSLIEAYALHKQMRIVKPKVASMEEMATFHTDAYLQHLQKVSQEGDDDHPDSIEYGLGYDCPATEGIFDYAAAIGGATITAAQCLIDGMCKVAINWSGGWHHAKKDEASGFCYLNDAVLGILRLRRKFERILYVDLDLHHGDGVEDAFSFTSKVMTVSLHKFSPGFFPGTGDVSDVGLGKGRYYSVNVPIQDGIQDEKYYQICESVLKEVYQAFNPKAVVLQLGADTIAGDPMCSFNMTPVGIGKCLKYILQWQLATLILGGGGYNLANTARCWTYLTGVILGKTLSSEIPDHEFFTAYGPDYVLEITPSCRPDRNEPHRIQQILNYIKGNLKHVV
Method: (§10) Against HDAC6, inhibition was determined using 0.01 µM of the inhibitor.
as §1, §2, §3, §4

HDAC11 = target: T3, HDAC11 (Homo sapiens, UniProt Q96DB2); experiment: HDAC11 enzyme inhibition assay (single point and 10-dose IC50, Reaction Biology); type: biochemical
T3 construct: purchased Reaction Biology corporation (contract assay)
T3 sequence (Q96DB2 1-347): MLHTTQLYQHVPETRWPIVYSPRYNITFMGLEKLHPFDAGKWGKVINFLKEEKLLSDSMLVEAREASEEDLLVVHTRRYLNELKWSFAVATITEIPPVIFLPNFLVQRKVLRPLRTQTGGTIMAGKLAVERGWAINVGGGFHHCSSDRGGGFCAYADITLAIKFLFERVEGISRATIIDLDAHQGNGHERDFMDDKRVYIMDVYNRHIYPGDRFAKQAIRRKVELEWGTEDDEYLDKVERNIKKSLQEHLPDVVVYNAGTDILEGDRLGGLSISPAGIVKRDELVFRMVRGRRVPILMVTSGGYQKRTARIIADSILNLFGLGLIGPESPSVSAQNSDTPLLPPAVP
Method: as §10
All IC50 measurements we performed by Reaction Biology corporation. Compounds were tested in […]
dilution starting at 1 uM.
Substrate for HDAC11: 50 uM Fluorogenic HDAC Class2a Substrate […]
(Trifluoroacetyl Lysine).
(RHK(Ac)K(Ac)AMC). IC50 values were calculated using the GraphPad Prism 4 program based on a sigmoidal dose-response equation. […]

[2] = tested on: acetylated histone in A549 cells; experiment: Histone acetylation in A549 cells, immunostaining with high content imaging; type: cell-based, human; conditions: 24 h
Method: as §5, §6, §7, §8, §9
435/48 nm) filters. […] Data was expressed as % Relative Fluorescence Units (RFU) […]

[3] = average of two independent measurements
[4] = single point, inhibitor 1.0 μM, average of two measurements, ±2%

T1 sequence (O15379 whole entry): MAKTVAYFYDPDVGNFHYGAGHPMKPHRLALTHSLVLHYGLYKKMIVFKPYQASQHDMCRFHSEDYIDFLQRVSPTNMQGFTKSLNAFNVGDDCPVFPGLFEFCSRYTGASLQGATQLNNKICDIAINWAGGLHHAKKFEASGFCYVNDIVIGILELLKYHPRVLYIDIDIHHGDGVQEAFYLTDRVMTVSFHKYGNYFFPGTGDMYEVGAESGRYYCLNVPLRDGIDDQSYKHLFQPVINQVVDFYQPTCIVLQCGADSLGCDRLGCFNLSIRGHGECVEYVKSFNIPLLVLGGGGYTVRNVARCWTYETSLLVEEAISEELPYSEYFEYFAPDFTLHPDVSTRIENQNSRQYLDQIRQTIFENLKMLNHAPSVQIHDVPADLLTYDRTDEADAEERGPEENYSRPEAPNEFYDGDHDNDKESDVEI
T1 sequence (Q9Y618 395-489 partner limits assumed): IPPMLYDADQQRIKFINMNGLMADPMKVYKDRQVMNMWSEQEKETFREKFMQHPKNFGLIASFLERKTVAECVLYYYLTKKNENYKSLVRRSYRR

SMILES: O=C(CCCCCN1C(=O)c2cccc3cc(NC(=O)c4ccccc4)cc(c23)C1=O)NO [KNH019]
- IC50 (HDAC3; [3]): 64 ± 0.2 nM
- Selectivity factor (SF) HDAC3 against HDAC6 (HDAC3; selectivity for HDAC6 over HDAC3): 64
- HDAC3 average enzyme isoform activity (percentage of full enzyme activity) (HDAC3; [4]): 24.1%
- Increase of tubulin acetylation compared to untreated cells (up to) ([1]; 0-50 µM, dose-dependent): ~1.5 fold
- Tubulin acetylation in representative immunostaining images ([1]; 10 µM): strongly induce
- Concentration from which tubulin acetylation was significantly increased ([1]; compared to untreated cells): 10^−6 mM
- IC50 (HDAC8; [3]): 2950 ± 460 nM
- Selectivity factor (SF) HDAC8 against HDAC6 (HDAC8; selectivity for HDAC6 over HDAC8): 2950
- HDAC8 average enzyme isoform activity (percentage of full enzyme activity) (HDAC8; [4]): 69.3%
- IC50 (HDAC11; [3]): 290 ± 35 nM
- Selectivity factor (SF) HDAC11 against HDAC6 (HDAC11; selectivity for HDAC6 over HDAC11): 290
- HDAC11 average enzyme isoform activity (percentage of full enzyme activity) (HDAC11; [4]): 67.5%
- Histone acetylation in representative immunostaining images ([2]; 10 µM): strongly induce
- Concentration from which histone acetylation was significantly increased ([2]; compared to untreated cells): 10^−2 mM

— paper PMC8232238 (Cells, 2021)
